# From patent US5010104A, “Tricyclic compounds” (Kyowa Hakko Kogyo Co., Ltd., priority 1987, dated 1991)
# Assays:
# [1] = target: T1, TXA2 /prostaglandin H2 receptor (Cavia porcellus, UniProt A0A286Y4I8); assay: Test on Anti-platelet Activity (TXA2 Antagonizing Test): inhibition of U-46619-induced platelet aggregation in guinea pig platelet rich plasma; format: cell-based; settings: minimum concentration inhibiting platelet aggregation by 30% or more; U-46619 0.5-1 μM; guinea pig PRP; 3 minutes pretreatment
# T1 construct: platelet rich plasma (PRP) was collected; endogenous in cells; host or cells: platelets in platelet rich plasma from male guinea pigs (Hartley strain)
# T1 sequence (A0A286Y4I8 1-347): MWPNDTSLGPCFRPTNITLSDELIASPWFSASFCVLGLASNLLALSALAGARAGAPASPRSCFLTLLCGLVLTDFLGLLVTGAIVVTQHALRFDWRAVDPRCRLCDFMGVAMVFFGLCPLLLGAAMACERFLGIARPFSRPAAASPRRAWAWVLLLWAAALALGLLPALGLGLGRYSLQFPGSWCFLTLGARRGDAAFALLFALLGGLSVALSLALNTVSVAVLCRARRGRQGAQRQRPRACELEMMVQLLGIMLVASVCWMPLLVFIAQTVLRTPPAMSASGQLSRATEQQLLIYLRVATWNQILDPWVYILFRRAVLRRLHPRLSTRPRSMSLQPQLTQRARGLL
# Description: Test on Anti-platelet Activity (TXA2 Antagonizing Test)
# Using guinea pig platelet, influence of the compounds in accordance with the present invention on platelet aggregation induced by U-46619 (9,11-dideoxy-9α,11a-methanoepoxyprostaglandin F2 α; manufactured by Cayman Chemica Co., Ltd. ) which was a TXA2 /prostaglandin H2 receptor stimulant was examined.
# Male guinea pig (Hartlet strain; body weight, 300 to 600 g) was anesthesized by intraperitoneal administration of sodium pentobarbital (30 mg/kg) and blood was collected from the descending aorta of the abdomen with a 1/10 volume of sodium citrate. By centrifugation (KC-70: manufactured by Kubota Co., Ltd.) at 800 rpm for 10 minutes, platelet rich plasma (PRP) was collected. Platelet aggregation induced by U-46619 (0.5-1 μM) was determined by photometry [Born, G. V. R. et al., Nature (London), 194, 927-929 (1962)]. A test compound was pretreated before 3 minutes and an ability of inhibiting aggregation was measured. The minimum concentration of inhibiting platelet aggregation by 30% or more was defined as the minimum effective concentration (MEC) of the test compound.
# dd strain male mice = assay: Acute Toxicity Test: minimum lethal dose, mortality observed for seven days; format: in vivo; settings: mortality over seven days; for Acute Toxicity (MLD) ip: intraperitoneal (ip; 100 mg/kg); for Acute Toxicity (MLD) po: oral (po; 300 mg/kg)
# Description: Using three dd strain male mice weighing 20±1 g, a test compound was orally (po; 300 mg/kg) or intraperiotoneally (ip; 100 mg/kg) administered. MLD (the minimum lethal dose) was determined by observing the mortality for seven days after administration.
compound,measurement,setting,value
"O=C(O)COc1ccc(CCNS(=O)(=O)c2ccccc2)cc1 [BM13177, reference compound]",TXA2 Antagonizing Activity (MEC),[1],3 µg/mL
same,Acute Toxicity (MLD) ip,dd strain male mice,> 100 mg/kg
same,Acute Toxicity (MLD) po,dd strain male mice,> 300 mg/kg
"O=C(O)c1ccc2c(c1)C(SCCNS(=O)(=O)c1ccccc1)c1cc(Br)ccc1CO2 (stereo not drawn) [Compound 6b, 9-Bromo-11-[2-[(phenylsulfonyl)amino]ethyl]thio-6,11-dihydrodibenz[b,e]oxepin-2-carboxylic acid]",TXA2 Antagonizing Activity (MEC),[1],0.03 µg/mL
same,Acute Toxicity (MLD) ip,dd strain male mice,> 100 mg/kg
same,Acute Toxicity (MLD) po,dd strain male mice,> 300 mg/kg
"O=C(O)c1ccc2c(c1)C(SCCNS(=O)(=O)c1ccc(F)cc1)c1ccccc1CO2 (stereo not drawn) [Compound 10b, 11-[2-[(4-Fluorophenylsulfonyl)amino]ethyl]thio-6,11-dihydrodibenz[b,e]oxepin-2-carboxylic acid]",TXA2 Antagonizing Activity (MEC),[1],0.3 µg/mL
same,Acute Toxicity (MLD) ip,dd strain male mice,> 100 mg/kg
same,Acute Toxicity (MLD) po,dd strain male mice,> 300 mg/kg
"O=C(O)c1ccc2c(c1)C(SCCNS(=O)(=O)c1cccs1)c1ccccc1CO2 (stereo not drawn) [Compound 15b, 11-[2-[(2-Thienylsulfonyl)amino]ethyl]thio-6,11-dihydrodibenz[b,e]oxepin-2-carboxylic acid]",TXA2 Antagonizing Activity (MEC),[1],0.3 µg/mL
same,Acute Toxicity (MLD) ip,dd strain male mice,> 100 mg/kg
same,Acute Toxicity (MLD) po,dd strain male mice,> 300 mg/kg
"O=C(O)c1ccc2c(c1)C(SCCNS(=O)(=O)c1cccc3cccnc13)c1ccccc1CO2 (stereo not drawn) [Compound 16b, 11-[2-[(8-Quinolylsulfonyl)amino]ethyl]thio-6,11-dihydrodibenz[b,e]oxepin-2-carboxylic acid]",TXA2 Antagonizing Activity (MEC),[1],3 µg/mL
same,Acute Toxicity (MLD) ip,dd strain male mice,> 100 mg/kg
same,Acute Toxicity (MLD) po,dd strain male mice,> 300 mg/kg
"COc1ccccc1C(=O)NCCSC1c2ccccc2COc2ccc(C(=O)O)cc21 (stereo not drawn) [Compound 33b, 11-[2-[(2-Methoxybenzoyl)amino]ethyl]thio-6,11-dihydrodibenz[b,e]oxepin-2-carboxylic acid]",TXA2 Antagonizing Activity (MEC),[1],0.3 µg/mL
same,Acute Toxicity (MLD) ip,dd strain male mice,> 100 mg/kg
same,Acute Toxicity (MLD) po,dd strain male mice,> 300 mg/kg
"O=C(O)c1ccc2c(c1)C(SCCNS(=O)(=O)c1ccccc1)c1ccccc1CS2 (stereo not drawn) [Compound 55b, 11-[2-[(Phenylsulfonyl)amino]ethyl]thio-6,11-dihydrodibenzo[b,e]thiepin-2carboxylic acid]",TXA2 Antagonizing Activity (MEC),[1],3 µg/mL
same,Acute Toxicity (MLD) ip,dd strain male mice,> 100 mg/kg
same,Acute Toxicity (MLD) po,dd strain male mice,> 300 mg/kg
O=C(O)Cc1ccc2c(c1)/C(=C/CCNS(=O)(=O)c1ccccc1)c1ccccc1CO2 [Compound E-29b],TXA2 Antagonizing Activity (MEC),[1],1 µg/mL
same,Acute Toxicity (MLD) ip,dd strain male mice,> 100 mg/kg
same,Acute Toxicity (MLD) po,dd strain male mice,> 300 mg/kg
